Values joined by “and” are separate entries in the source; they are usually repeats but may differ in a detail not shown here. Equal entries are not always repeated.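 Where inhibition never reached the appropriate level, the endpoint shown equals the highest concentration tested. Otherwise, values were interpolated linearly from a five-concentration, 48-hour dose response in 96-well plates. GI50 is the concentration that inhibits growth by half. TGI denotes the concentration required for complete inhibition of growth.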
Experiments:
Experiment in all cases: NCI tumour cell line growth inhibition, 48 h
HCT-15 colon = system: HCT-15 colon
CCRF-CEM leukemia = system: CCRF-CEM leukemia
LOX IMVI melanoma = system: LOX IMVI melanoma
RXF 393 renal = system: RXF 393 renal
HCC-2998 colon = system: HCC-2998 colon
HOP-92 NSCLC = system: HOP-92 NSCLC
UO-31 renal = system: UO-31 renal
SK-MEL-2 melanoma = system: SK-MEL-2 melanoma
HS 578T breast = system: HS 578T breast
PC-3 prostate = system: PC-3 prostate

Row | Compound | TGI (HCT-15 colon) | TGI (CCRF-CEM leukemia) | TGI (LOX IMVI melanoma) | TGI (RXF 393 renal) | GI50 (HCC-2998 colon) [µM] | TGI (HCC-2998 colon) [µM] | TGI (HOP-92 NSCLC) | GI50 (UO-31 renal) [µM] | TGI (UO-31 renal) [µM] | TGI (SK-MEL-2 melanoma) [µM] | TGI (HS 578T breast) [µM] | TGI (PC-3 prostate) [µM] | GI50 (HCT-15 colon) [µM] | GI50 (HS 578T breast) [µM] | GI50 (LOX IMVI melanoma) [µM] | GI50 (RXF 393 renal) [µM] | GI50 (HOP-92 NSCLC) [µM] | GI50 (SK-MEL-2 melanoma) [µM]
1 | NC(Cc1ccccc1)C(=O)OCN1C(=O)C2C3C=CC(C2C1=O)C1C2C(=O)N(COC(=O)C(N)Cc4ccccc4)C(=O)C2C31 (configuration not stated) | 35.2 µM and 35.3 µM | 50.3 µM and > 100 µM | 41.4 µM and 36.8 µM | 41.7 µM and 39.3 µM | 55.4 | > 100 | 95.4 µM and > 100 µM | 40.6 | – | – | – | – | – | – | – | – | – | –
2 | O=C(NCCCCCCCCCCCCNC(=O)c1cnc2ccccc2n1)c1cnc2ccccc2n1 | > 100 µM | > 100 µM | > 100 µM | 88.6 µM | – | > 100 | – | – | 86.1 | > 100 | – | – | – | – | – | – | – | –
3 | CC(Oc1cc2oc(=O)cc(-c3ccccc3)c2cc1Cl)C(=O)O (configuration not stated) | – | > 100 µM | > 100 µM | > 100 µM | – | > 100 | > 100 µM | – | > 100 | – | – | – | – | – | – | – | – | –
4 | c1ccc2c(c1)[nH]c1cnc3c4ncccc4[nH]c3c12 | > 100 µM | > 100 µM | > 100 µM | > 100 µM | – | > 100 | 79.3 µM | – | > 100 | > 100 | – | – | – | – | – | – | – | –
5 | O=C1OC(CC(=O)c2ccc(F)cc2)C(Cl)=C1Cl (configuration not stated) | 35.5 µM | > 100 µM | 31.9 µM | 37.5 µM | – | 30.1 | 34.7 µM | – | 38.5 | 45 | – | – | – | – | – | – | – | –
6 | NCCOc1ccc(/C(=C(/Cl)c2ccccc2)c2ccccc2)cc1 | 19.1 µM | 24.6 µM | 16.6 µM | 13.8 µM | – | 14.8 | 16.8 µM | – | 21.4 | 29.1 | – | – | – | – | – | – | – | –
7 | COC(=O)C(=O)C(CC(=O)Nc1cc(Cl)ccc1Cl)C(=O)OC (configuration not stated) | > 100 µM | > 100 µM | > 100 µM | > 100 µM | – | > 100 | > 100 µM | – | > 100 | > 100 | – | – | – | – | – | – | – | –
8 | CCOC(=O)c1oc2c(OC)ccc3c2c1CCC3 | > 100 µM | > 100 µM | > 100 µM | > 100 µM | – | > 100 | > 100 µM | – | > 100 | > 100 | – | – | – | – | – | – | – | –
9 | O=C(Nc1cccc(C(F)(F)F)c1)C(=O)C(C(=O)c1ccc(Cl)c(Cl)c1)C1OC(=O)c2ccccc21 (configuration not stated) | > 100 µM | > 100 µM | > 100 µM | 41.7 µM | – | > 100 | > 100 µM | – | > 100 | – | – | – | – | – | – | – | – | –
10 | C/C(=N\Nc1ccccc1)c1sc(-c2nc(C)c(/C(C)=N/Nc3ccccc3)s2)nc1C | > 20.2 µM | > 100 µM | > 100 µM | > 87.9 µM | – | 19.9 | > 57.6 µM | – | > 60.7 | > 100 | – | – | – | – | – | – | – | –
11 | CCCCCCCCCCC(=O)CCCCCCC(=O)O | 28 µM | 73.8 µM | 31.4 µM | 91.5 µM | – | 36.1 | 35.8 µM | – | 71.9 | > 100 | – | – | – | – | – | – | – | –
12 | COc1cc(/C=C/C(=O)c2cccc3ccccc23)cc(OC)c1OC | – | 7.27 µM | 12.1 µM | 7.93 µM | – | 28.2 | – | – | 30.5 | 12.4 | – | – | – | – | – | – | – | –
13 | C=C1CCC2CC1C(C(=O)c1c[nH]c3ccccc13)=NC2(C)C (configuration not stated) | > 100 µM | > 100 µM | > 100 µM | – | – | > 100 | – | – | > 100 | – | > 100 | > 100 | – | – | – | – | – | –
14 | C/C(=C1/N=C(c2cc([N+](=O)[O-])ccc2Cl)N(c2ccc(Br)cc2)C1=O)c1ccc(N(CCC#N)CCC#N)cc1C | 58.7 µM | 32.7 µM | 29.1 µM | > 100 µM | – | 72.1 | > 100 µM | – | > 100 | > 100 | – | – | – | – | – | – | – | –
15 | Cc1ccccc1NC(=O)CC1C(=O)Nc2ccccc2S1=O (configuration not stated) | > 100 µM | > 100 µM | > 100 µM | 51.8 µM | – | > 100 | > 100 µM | – | > 100 | > 100 | – | – | – | – | – | – | – | –
16 | Clc1ccc(-c2cc(-c3ccccc3)nc(N3CCN(CCCNc4ccnc5cc(Cl)ccc45)CC3)n2)cc1 | 2.48 µM | – | 3.19 µM | 2.58 µM | 1.56 | 3.02 | 2.6 µM | 1.55 | 2.9 | 3.39 | 4.38 | – | 0.779 | 1.86 | 1.75 | 1.25 | 1.21 | 1.82
17 | CC1CC(C[N+](=O)[O-])CC2(C1)OCCO2 (configuration not stated) | > 100 µM | > 100 µM | – | > 100 µM | – | > 100 | – | – | > 100 | > 100 | – | – | – | – | – | – | – | –
18 | CC1=C(C(=O)Nc2cccc(Cl)c2)C(c2ccccc2O)C(C(=O)Nc2cccc(Cl)c2)=C(C)N1 | – | 50.2 µM | 39.7 µM | 31.9 µM | – | 33.1 | 37 µM | – | 31.3 | 32.2 | – | – | – | – | – | – | – | –
